Laboratory results as given in ChEMBL document CHEMBL4138232, “O2-(2,4-dinitrophenyl)diazeniumdiolates derivatives: Design, synthesis, cytotoxic evaluation and reversing MDR in MCF-7/ADR cells” (Eur J Med Chem, 2018).
pIC50: −log10 of the molar value.

test system: HCT-116; experiment: Cytotoxicity against human HCT116 cells overexpressing GST-Pi assessed as inhibition of cell viability at 10 uM after 48 hrs by MTT assay relative to control; type: functional; details: HCT-116, 48 h

SMILES | inhibition at 10 µM
COc1cc(/C=C/C(=O)c2cccc(Oc3cc(O/N=[N+](\[O-])N4CCCCC4)c([N+](=O)[O-])cc3[N+](=O)[O-])c2)cc(OC)c1OC | 63.7%
COc1ccc(/C=C/C(=O)c2cccc(Oc3cc(O/N=[N+](\[O-])N4CCCCC4)c([N+](=O)[O-])cc3[N+](=O)[O-])c2)cc1 | 69.5%
CCCCCCOc1ccc(C2CC(c3cccc(Oc4cc(O/N=[N+](\[O-])N5CCCCC5)c([N+](=O)[O-])cc4[N+](=O)[O-])c3)=NN2C(C)=O)cc1OC (stereo unspecified) | 48%
COc1ccc(/C=C/C(=O)c2cccc(Oc3cc(O/N=[N+](\[O-])N4CCCCC4)c([N+](=O)[O-])cc3[N+](=O)[O-])c2)cc1OC | 66.1%
CCCCCOc1ccc(C2CC(c3cccc(Oc4cc(O/N=[N+](\[O-])N5CCOCC5)c([N+](=O)[O-])cc4[N+](=O)[O-])c3)=NN2C(C)=O)cc1OC (stereo unspecified) | 68.3%
CCCCCCOc1ccc(C2CC(c3cccc(Oc4cc(O/N=[N+](\[O-])N5CCOCC5)c([N+](=O)[O-])cc4[N+](=O)[O-])c3)=NN2C(C)=O)cc1OC (stereo unspecified) | 66.7%

test system: not listed separately; experiment: Selectivity ratio of IC50 for human A549 cells to IC50 for human MDA-MB-231 cells; type: functional; details: not given

SMILES | Ratio IC50
COc1cc(/C=C/C(=O)c2cccc(Oc3cc(O/N=[N+](\[O-])N4CCCCC4)c([N+](=O)[O-])cc3[N+](=O)[O-])c2)cc(OC)c1OC | 1.4
COc1ccc(/C=C/C(=O)c2cccc(Oc3cc(O/N=[N+](\[O-])N4CCCCC4)c([N+](=O)[O-])cc3[N+](=O)[O-])c2)cc1 | 1.4
COc1ccc(/C=C/C(=O)c2cccc(Oc3cc(O/N=[N+](\[O-])N4CCCCC4)c([N+](=O)[O-])cc3[N+](=O)[O-])c2)cc1OC | 0.9

test system: MDA-MB-231; experiment: Antiproliferative activity against human MDA-MB-231 cells after 48 hrs by MTT assay relative to control; type: functional, cell-based; details: MDA-MB-231, 48 h

SMILES | pIC50
COc1cc(/C=C/C(=O)c2cccc(Oc3cc(O/N=[N+](\[O-])N4CCCCC4)c([N+](=O)[O-])cc3[N+](=O)[O-])c2)cc(OC)c1OC | 5.47
COc1ccc(/C=C/C(=O)c2cccc(Oc3cc(O/N=[N+](\[O-])N4CCCCC4)c([N+](=O)[O-])cc3[N+](=O)[O-])c2)cc1 | 5.21
COc1ccc(/C=C/C(=O)c2cccc(Oc3cc(O/N=[N+](\[O-])N4CCCCC4)c([N+](=O)[O-])cc3[N+](=O)[O-])c2)cc1OC | 4.96

test system: MCF7; experiment: Cytotoxicity against ADR-sensitive human MCF7 cells assessed as inhibition of cell viability after 48 hrs by MTT assay; type: cell-based; details: MCF7, 48 h

SMILES | pIC50
COc1cc(/C=C/C(=O)c2cccc(Oc3cc(O/N=[N+](\[O-])N4CCCCC4)c([N+](=O)[O-])cc3[N+](=O)[O-])c2)cc(OC)c1OC | 4.52
COc1ccc(/C=C/C(=O)c2cccc(Oc3cc(O/N=[N+](\[O-])N4CCCCC4)c([N+](=O)[O-])cc3[N+](=O)[O-])c2)cc1 | 4.15
COc1ccc(/C=C/C(=O)c2cccc(Oc3cc(O/N=[N+](\[O-])N4CCCCC4)c([N+](=O)[O-])cc3[N+](=O)[O-])c2)cc1OC | 4.49
CCCCCOc1ccc(C2CC(c3cccc(Oc4cc(O/N=[N+](\[O-])N5CCOCC5)c([N+](=O)[O-])cc4[N+](=O)[O-])c3)=NN2C(C)=O)cc1OC (stereo unspecified) | 4.45

species: Homo sapiens; experiment: Inhibition of MDR in human MCF7/ADR cells assessed as potentiation of adriamycin-induced antiproliferative activity by measuring fold reduction in adriamycin IC50 at 10 uM after 48 hrs by MTT assay; type: cell-based; details: not given

SMILES | fold change (FC)
COc1cc(/C=C/C(=O)c2cccc(Oc3cc(O/N=[N+](\[O-])N4CCCCC4)c([N+](=O)[O-])cc3[N+](=O)[O-])c2)cc(OC)c1OC | 42.5
COc1ccc(/C=C/C(=O)c2cccc(Oc3cc(O/N=[N+](\[O-])N4CCCCC4)c([N+](=O)[O-])cc3[N+](=O)[O-])c2)cc1 | 1.53
COc1ccc(CCN(C)CCCC(C#N)(c2ccc(OC)c(OC)c2)C(C)C)cc1OC (stereo unspecified) | 29.8
COc1ccc(/C=C/C(=O)c2cccc(Oc3cc(O/N=[N+](\[O-])N4CCCCC4)c([N+](=O)[O-])cc3[N+](=O)[O-])c2)cc1OC | 10.2
CCCCCOc1ccc(C2CC(c3cccc(Oc4cc(O/N=[N+](\[O-])N5CCOCC5)c([N+](=O)[O-])cc4[N+](=O)[O-])c3)=NN2C(C)=O)cc1OC (stereo unspecified) | 16.8

test system: MCF-10A; experiment: Antiproliferative activity against human MCF10A cells after 48 hrs by MTT assay relative to control; type: cell-based; details: not given

SMILES | pIC50
COc1cc(/C=C/C(=O)c2cccc(Oc3cc(O/N=[N+](\[O-])N4CCCCC4)c([N+](=O)[O-])cc3[N+](=O)[O-])c2)cc(OC)c1OC | 4.09
COc1ccc(/C=C/C(=O)c2cccc(Oc3cc(O/N=[N+](\[O-])N4CCCCC4)c([N+](=O)[O-])cc3[N+](=O)[O-])c2)cc1 | 3.95
COc1ccc(/C=C/C(=O)c2cccc(Oc3cc(O/N=[N+](\[O-])N4CCCCC4)c([N+](=O)[O-])cc3[N+](=O)[O-])c2)cc1OC | 4.02

test system: U2OS; experiment: Antiproliferative activity against human U2OS cells after 48 hrs by MTT assay relative to control; type: functional, cell-based; details: not given

SMILES | pIC50
COc1cc(/C=C/C(=O)c2cccc(Oc3cc(O/N=[N+](\[O-])N4CCCCC4)c([N+](=O)[O-])cc3[N+](=O)[O-])c2)cc(OC)c1OC | 5.33
COc1ccc(/C=C/C(=O)c2cccc(Oc3cc(O/N=[N+](\[O-])N4CCCCC4)c([N+](=O)[O-])cc3[N+](=O)[O-])c2)cc1 | 5.01
COc1ccc(/C=C/C(=O)c2cccc(Oc3cc(O/N=[N+](\[O-])N4CCCCC4)c([N+](=O)[O-])cc3[N+](=O)[O-])c2)cc1OC | 4.94

test system: HCT-116; experiment: Antiproliferative activity against human HCT116 cells after 48 hrs by MTT assay relative to control; type: functional, cell-based; details: HCT-116, 48 h

SMILES | pIC50
COc1cc(/C=C/C(=O)c2cccc(Oc3cc(O/N=[N+](\[O-])N4CCCCC4)c([N+](=O)[O-])cc3[N+](=O)[O-])c2)cc(OC)c1OC | 5.28
COc1ccc(/C=C/C(=O)c2cccc(Oc3cc(O/N=[N+](\[O-])N4CCCCC4)c([N+](=O)[O-])cc3[N+](=O)[O-])c2)cc1 | 5.27
COc1ccc(/C=C/C(=O)c2cccc(Oc3cc(O/N=[N+](\[O-])N4CCCCC4)c([N+](=O)[O-])cc3[N+](=O)[O-])c2)cc1OC | 5.05

test system: not listed separately; experiment: Selectivity ratio of IC50 for human MCF10A cells to IC50 for human MDA-MB-231 cells; type: toxicity; details: MCF10A cells versus MDA-MB-231 cells, read-out: Ratio IC50

SMILES | selectivity ratio
COc1cc(/C=C/C(=O)c2cccc(Oc3cc(O/N=[N+](\[O-])N4CCCCC4)c([N+](=O)[O-])cc3[N+](=O)[O-])c2)cc(OC)c1OC | 23.6
COc1ccc(/C=C/C(=O)c2cccc(Oc3cc(O/N=[N+](\[O-])N4CCCCC4)c([N+](=O)[O-])cc3[N+](=O)[O-])c2)cc1 | 18.3
COc1ccc(/C=C/C(=O)c2cccc(Oc3cc(O/N=[N+](\[O-])N4CCCCC4)c([N+](=O)[O-])cc3[N+](=O)[O-])c2)cc1OC | 8.6

test system: not listed separately; experiment: Selectivity ratio of IC50 for human U2OS cells to IC50 for human MDA-MB-231 cells; type: functional; details: not given

SMILES | Ratio IC50
COc1cc(/C=C/C(=O)c2cccc(Oc3cc(O/N=[N+](\[O-])N4CCCCC4)c([N+](=O)[O-])cc3[N+](=O)[O-])c2)cc(OC)c1OC | 1.4
COc1ccc(/C=C/C(=O)c2cccc(Oc3cc(O/N=[N+](\[O-])N4CCCCC4)c([N+](=O)[O-])cc3[N+](=O)[O-])c2)cc1 | 1.6
COc1ccc(/C=C/C(=O)c2cccc(Oc3cc(O/N=[N+](\[O-])N4CCCCC4)c([N+](=O)[O-])cc3[N+](=O)[O-])c2)cc1OC | 1

test system: not listed separately; experiment: Cytotoxicity against ADR-sensitive human MCF7 cells assessed as inhibition of cell viability at 10 uM after 48 hrs by MTT assay relative to control; type: cell-based; details: read-out: INH

SMILES | cytotoxicity at 48 h, 10 µM
COc1cc(/C=C/C(=O)c2cccc(Oc3cc(O/N=[N+](\[O-])N4CCCCC4)c([N+](=O)[O-])cc3[N+](=O)[O-])c2)cc(OC)c1OC | 19.2%
COc1ccc(/C=C/C(=O)c2cccc(Oc3cc(O/N=[N+](\[O-])N4CCCCC4)c([N+](=O)[O-])cc3[N+](=O)[O-])c2)cc1 | 11.2%
COc1ccc(/C=C/C(=O)c2cccc(Oc3cc(O/N=[N+](\[O-])N4CCCCC4)c([N+](=O)[O-])cc3[N+](=O)[O-])c2)cc1OC | 8.24%
CCCCCOc1ccc(C2CC(c3cccc(Oc4cc(O/N=[N+](\[O-])N5CCOCC5)c([N+](=O)[O-])cc4[N+](=O)[O-])c3)=NN2C(C)=O)cc1OC (stereo unspecified) | 21.7%

test system: not listed separately; experiment: Selectivity ratio of IC50 for human HCT116 cells to IC50 for human MDA-MB-231 cells; type: functional; details: not given

SMILES | Ratio IC50
COc1cc(/C=C/C(=O)c2cccc(Oc3cc(O/N=[N+](\[O-])N4CCCCC4)c([N+](=O)[O-])cc3[N+](=O)[O-])c2)cc(OC)c1OC | 1.5
COc1ccc(/C=C/C(=O)c2cccc(Oc3cc(O/N=[N+](\[O-])N4CCCCC4)c([N+](=O)[O-])cc3[N+](=O)[O-])c2)cc1 | 0.9
COc1ccc(/C=C/C(=O)c2cccc(Oc3cc(O/N=[N+](\[O-])N4CCCCC4)c([N+](=O)[O-])cc3[N+](=O)[O-])c2)cc1OC | 0.8

test system: A549; experiment: Antiproliferative activity against human A549 cells after 48 hrs by MTT assay relative to control; type: functional, cell-based; details: A549, 48 h

SMILES | pIC50
COc1cc(/C=C/C(=O)c2cccc(Oc3cc(O/N=[N+](\[O-])N4CCCCC4)c([N+](=O)[O-])cc3[N+](=O)[O-])c2)cc(OC)c1OC | 5.33
COc1ccc(/C=C/C(=O)c2cccc(Oc3cc(O/N=[N+](\[O-])N4CCCCC4)c([N+](=O)[O-])cc3[N+](=O)[O-])c2)cc1 | 5.07
COc1ccc(/C=C/C(=O)c2cccc(Oc3cc(O/N=[N+](\[O-])N4CCCCC4)c([N+](=O)[O-])cc3[N+](=O)[O-])c2)cc1OC | 5.02
